Columns and labels:
Assay type in all cases: cell-based, human
[1] = system: Jurkat cells; experiment: Nuclear staining assay (propidium iodide), Jurkat; details: 24 h
Description: Nuclear staining assay: After treatment with the compound for 24 h, Jurkat cells were washed once with ice-cold EDTA/PBS (5 mM) and fixed with 70% ethanol for 1 h at RT. Fixed cells were placed on slides and stained with PI (5 μg/ml) with RNase A (1 mg/ml) for 20 mins. After decolourization with water, nuclear morphology of cells was examined by fluorescence microscopy.

[2] = system: bcl-2; experiment: bcl-2 mRNA, semi-quantitative RT-PCR, Jurkat; details: 0-500 nM, 24 h
Description: (§1) FIG. 18: Effects of compound 27 on p53, Bax, bcl-2 mRNA levels in Jurkat cells. Expression of human p53, bax-α, bcl-2, was assayed by semi quantitative RT-PCR analysis with GAPDH as internal control. Cells were treated for 24 h with various doses of the compound (0, 50, 100 and 500 nM), then total RNA was extracted and submitted to RT-PCR.
(§2) RNA extraction: Total RNA was isolated using the standard TRIzol method (Gibco BRL). Briefly, 3×10^6 cells were treated with different concentrations of the compounds as indicated in the legends to Figures and after harvesting the cell pellet was resuspended in 1 ml of TRIzol with repeated pipetting. The homogenized sample was incubated at RT for 5 min to permit complete dissociation of the nucleoprotein complexes. […] of chloroform was added and the tubes were shaken vigorously for 15 sec by hand and then incubated at RT for 3 mins. The samples were then centrifuged at 10,000 RPM for 15 mins at 4° C. The aqueous phase was transferred to a fresh tube and 500 μl of Isopropyl alcohol was added, followed by incubation at RT for 10 mins. […]
(§3) Semi-quantitative reverse transcriptase (RT)-PCR: Changes in gene expression were verified by semi-quantitative RT-PCR using GAPDH as an internal normalization standard. 1 μg of total RNA (quantified by spectrophotometer) was used to reverse transcribe into cDNA. […]

[3] = system: bax; experiment: bax mRNA, semi-quantitative RT-PCR, Jurkat; details: increasing concentrations
Description: as §1, §2, §3

[4] = system: NF-κB; experiment: NF-κB activation assay (Transfactor ELISA on nuclear extracts), Jurkat; details: pretreated 3 h
Description: Cell pellet was resuspended in lysis buffer (10 mM HEPES, pH 7.9, 1.5 mM MgCl2, 10 mM KCl, 1 mM PMSF, 1 mMDTT, 0.5% NP 40, 0.1 mM EGTA and 0.1 mM EDTA) and allowed to swell on ice for 15 min, followed by centrifugation at 3300×g for 20 min. The cell pellet was resuspended in a volume of lysis buffer equal to the cell pellet volume. The cell suspension was slowly drawn down into a syringe and ejected the content in a single stroke. Disrupted cells were incubated for 15 min on ice, and the disrupted cell suspension was centrifuged at 10,000×g for 20 min at 4° C. Nuclear pellet was resuspended in a volume of extraction buffer (20 mM HEPES; pH 7.9, 25% glycerol, 1.5 mM MgCl2, 420 mM NaCl, 0.1 mM EDTA, 0.1 mM EGTA, 1 mM PMSF and 1 mM DTT) and incubated on ice for 30 min. The nuclear suspension was centrifuged at 21,000×g for 15 min at 4° C. and the supernatant was collected as nuclear extract and stored at −70° C. Protein concentration was estimated using standard Bradford method.
To determine NF-κB activation, transcription profiling was done with the BD Mercury Transfactor kit obtained from BD Biosciences. This method provides rapid, high-throughput detection of specific transcription factors eg NFκB in the nuclear extract. Using an enzyme-linked immunosorbent assay (ELISA)-based format, the Transcription Factor kit detects the DNA binding by specific transcription factors.
The assay was performed by using wells coated with oligonucleotides having the consensus DNA binding sites for the specific transcription factors. 50 μg of the nuclear extract proteins were incubated in the wells precoated with their specific oligonucletides, and allowed the activated NFκB to bind to their consensus sequence. Bound transcription factor was detected by a specific Primary Antibody. A horseradish peroxidase conjugated Secondary Antibody was then used to detect the bound Primary Antibody. After addition of the substrate, the Absorbance was recorded at 655 nm. […]

[5] = system: NF-κB; experiment: NF-κB activation assay, MCF-7; details: MCF-7, 15 μM 3 h, 0.1 nM TNF 30 min
Description: FIG. 4: Effect of CAMVE on NF-κB activation in different cell lines. A. HeLa, MCF-7, U937, were incubated at 37° C. for 3 h with 15 μM dose of CAMVE and then stimulated with 0.1 nM TNF for 30 min. After these treatments, nuclear extracts were prepared and assayed for NF-κB using BD Transfactor ELISA method. B. RAW 264.7 cells pretreated with indicated doses of CAMVE were stimulated with 100 ng/ml LPS for 30 min and assayed for NF-κB activation.
Cell pellet was resuspended in lysis buffer (10 mM HEPES, pH 7.9, 1.5 mM MgCl2, 10 mM KCl, 1 mM PMSF, 1 mMDTT, 0.5% NP 40, 0.1 mM EGTA and 0.1 mM EDTA) and allowed to swell on ice for 15 min, followed by centrifugation at 3300×g for 20 min. The cell pellet was resuspended in a volume of lysis buffer equal to the cell pellet volume. The cell suspension was slowly drawn down into a syringe and ejected the content in a single stroke. Disrupted cells were incubated for 15 min on ice, and the disrupted cell suspension was centrifuged at 10,000×g for 20 min at 4° C. […]
The assay was performed by using wells coated with oligonucleotides having the consensus DNA binding sites for the specific transcription factors. […] Bound transcription factor was detected by a specific Primary Antibody. […] After addition of the substrate, the Absorbance was recorded at 655 nm.

| SMILES | nuclear morphology after propidium iodide staining [1] | anti-apoptotic bcl-2 mRNA levels [2] | pro-apoptotic bax mRNA levels [3] | TNF induced NF-κB activation ([4]; 0.1 nM TNF 30 min) | concentration of maximum inhibition of TNF induced NF-κB activation ([4]; 0.1 nM TNF 30 min) [µM] | LPS induced NF-κB activation ([4]; 100 ng/ml SA-LPS 30 min) | TNF-induced NF-κB activation [5] |
| --- | --- | --- | --- | --- | --- | --- | --- |
| COc1cc([C@@H]2Oc3c(OC)cc(/C=C/C(=O)O)cc3[C@H]2C(=O)O)ccc1O [compound 27, 5-[(E)-2-carboxyvinyl]-2β-(4-hydroxy-3-methoxyphenyl)-7-methoxy-2,3-dihydro-1-benzofuran-3α-carboxylic acid] | typical apoptotic nuclei | downregulated in a dose dependent manner | increased the pro-apoptotic bax mRNA levels | – | – | – | – |
| COC(=O)c1ccc(OC(=O)/C=C/c2ccc(O)c(O)c2)c(OC)c1 [compound 1, Methyl 4-{[(2E)-3-(3,4-dihydroxyphenyl)prop-2-enoyl]oxy}-3-methoxybenzoate] | – | – | – | inhibited this activation in a concentration dependent manner | 15 | blocked by CAMVE | blocks TNF-induced NF-κB activation |

Reference: patent publication US20100168228A1, “NOVEL CHEMOTHERAPEUTIC AGENTS AGAINST INFLAMMATION AND CANCER” (RELIANCE LIFE SCIENCES PVT. LTD., priority 2006, published 2010)
